The source of these data is ChEMBL document CHEMBL1147337, “A new bastadin from the sponge Psammaplysilla purpurea” (J Nat Prod, 1993).

SMILES strings stand for the structures. ≈ marks a conversion by molar mass, not a printed value.

The test system of one experiment is A549. Kind of experiment: Cytotoxicity against human A549 cells. Type of experiment: functional, cell-based.
The next experiment has as its system HT-29. Kind of experiment: Cytotoxicity against human HT-29 cells. Type of experiment: functional, cell-based.
The test system of another experiment is P388. Kind of experiment: Cytotoxicity against mouse P388 cells. Type of experiment: functional, cell-based.
Experiment [1] is described as follows: Cytotoxicity against african green monkey CV1 cells. To be noted: Chlorocebus aethiops, CV-1. Type of experiment: cell-based.
In experiment [2] the target is DNA topoisomerase 2-alpha (Homo sapiens, UniProt P11388). The experiment is described as follows: Inhibition of topoisomerase 2.
In another experiment the target is T1, Dihydrofolate reductase (Homo sapiens, UniProt P00374).
T1 sequence (P00374 whole entry): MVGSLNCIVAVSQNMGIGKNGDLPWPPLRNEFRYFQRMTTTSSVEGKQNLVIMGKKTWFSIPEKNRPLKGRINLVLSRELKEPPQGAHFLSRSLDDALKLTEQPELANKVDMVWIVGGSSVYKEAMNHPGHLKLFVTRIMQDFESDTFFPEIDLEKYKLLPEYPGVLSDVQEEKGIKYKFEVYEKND
Kind of experiment: Inhibition of DHFR.

DNA topoisomerase 2-alpha, sequence (P11388 whole entry): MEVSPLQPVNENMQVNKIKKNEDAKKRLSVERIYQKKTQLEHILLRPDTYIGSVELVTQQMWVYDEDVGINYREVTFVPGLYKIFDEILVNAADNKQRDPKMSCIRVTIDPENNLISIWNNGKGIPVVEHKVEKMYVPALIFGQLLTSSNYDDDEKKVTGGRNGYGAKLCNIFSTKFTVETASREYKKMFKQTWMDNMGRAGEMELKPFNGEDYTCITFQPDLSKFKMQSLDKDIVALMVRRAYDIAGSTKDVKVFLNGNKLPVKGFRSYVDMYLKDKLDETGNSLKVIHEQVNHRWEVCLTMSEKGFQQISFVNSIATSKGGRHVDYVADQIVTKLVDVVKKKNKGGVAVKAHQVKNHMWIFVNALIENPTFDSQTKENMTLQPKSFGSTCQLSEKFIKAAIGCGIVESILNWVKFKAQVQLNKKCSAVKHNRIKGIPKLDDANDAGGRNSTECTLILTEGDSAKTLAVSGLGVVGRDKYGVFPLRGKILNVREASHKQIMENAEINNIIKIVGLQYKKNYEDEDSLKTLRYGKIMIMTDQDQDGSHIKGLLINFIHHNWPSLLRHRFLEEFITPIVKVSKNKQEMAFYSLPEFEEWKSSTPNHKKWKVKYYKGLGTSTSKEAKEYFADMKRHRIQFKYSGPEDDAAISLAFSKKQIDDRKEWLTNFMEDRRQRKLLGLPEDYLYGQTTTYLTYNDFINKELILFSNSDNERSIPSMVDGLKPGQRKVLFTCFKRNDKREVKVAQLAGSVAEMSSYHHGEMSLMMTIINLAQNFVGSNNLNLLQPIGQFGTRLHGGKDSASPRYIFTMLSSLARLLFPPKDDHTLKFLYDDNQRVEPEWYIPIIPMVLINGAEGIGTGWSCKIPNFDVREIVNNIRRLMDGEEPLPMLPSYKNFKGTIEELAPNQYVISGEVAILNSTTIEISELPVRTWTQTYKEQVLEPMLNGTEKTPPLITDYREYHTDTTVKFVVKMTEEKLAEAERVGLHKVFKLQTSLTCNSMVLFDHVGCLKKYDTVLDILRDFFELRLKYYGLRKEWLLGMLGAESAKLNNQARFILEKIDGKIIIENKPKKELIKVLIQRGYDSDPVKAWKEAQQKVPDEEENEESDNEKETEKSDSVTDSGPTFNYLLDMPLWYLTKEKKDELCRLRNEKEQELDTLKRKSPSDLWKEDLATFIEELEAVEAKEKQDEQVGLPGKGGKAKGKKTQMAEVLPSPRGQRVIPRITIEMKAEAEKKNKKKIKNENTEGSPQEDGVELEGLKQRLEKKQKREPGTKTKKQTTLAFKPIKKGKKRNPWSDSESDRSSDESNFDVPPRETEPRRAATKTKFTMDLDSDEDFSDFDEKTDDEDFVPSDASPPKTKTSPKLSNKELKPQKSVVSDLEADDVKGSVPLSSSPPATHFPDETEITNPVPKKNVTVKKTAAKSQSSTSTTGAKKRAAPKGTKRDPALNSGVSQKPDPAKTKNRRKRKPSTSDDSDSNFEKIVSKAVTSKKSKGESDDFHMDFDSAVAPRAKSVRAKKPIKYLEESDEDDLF

Take `O=C1N/C=C/c2cc(Br)c(c(Br)c2)Oc2cc(cc(Br)c2O)CCNC(=O)/C(=N/O)Cc2ccc(c(Br)c2)Oc2cc(cc(Br)c2O)C/C1=N\O` [BASTADIN 14]: the IC50 with A549 is 2 µg/mL (≈ 1.97 µM); in the experiment with HT-29, 2 µg/mL (≈ 1.97 µM); in the experiment on P388 it was 2 µg/mL (≈ 1.97 µM); in experiment [1], 2.5 µg/mL (≈ 2.46 µM); in experiment [2], 1970 nM; against Dihydrofolate reductase it was 2460 nM.
